# Reference: ChEMBL document CHEMBL1201862, “PubChem BioAssay data set” (2004)
# Activity calls are given as the source filed them.
# Assays:
# [1] = target: T1, RNA-binding protein pos-1 (Caenorhabditis elegans, UniProt G5EF15); assay: disruptors of C. elegans POS-1 RNA interaction – biochemical, fluorescence polarization, dose response (AID 1964);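 also: purified POS-1 fused to maltose binding protein made in E. coli; potency of compounds blocking POS-1 binding to fluorescent RNA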
# T1 sequence (G5EF15 whole entry): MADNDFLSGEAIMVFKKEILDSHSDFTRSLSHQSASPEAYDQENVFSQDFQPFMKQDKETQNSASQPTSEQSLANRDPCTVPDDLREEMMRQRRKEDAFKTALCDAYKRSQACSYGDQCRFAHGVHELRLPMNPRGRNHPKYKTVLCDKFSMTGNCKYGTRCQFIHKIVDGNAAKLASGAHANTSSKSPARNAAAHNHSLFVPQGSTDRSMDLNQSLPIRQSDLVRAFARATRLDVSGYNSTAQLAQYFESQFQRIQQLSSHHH
# [2] = target: T2, Zinc finger protein mex-5 (Caenorhabditis elegans, UniProt Q9XUB2); assay: potency of MEX-5 RNA-binding blockers – biochemical, C. elegans, fluorescence polarization, dose response (AID 1960)
# T2 sequence (Q9XUB2 whole entry): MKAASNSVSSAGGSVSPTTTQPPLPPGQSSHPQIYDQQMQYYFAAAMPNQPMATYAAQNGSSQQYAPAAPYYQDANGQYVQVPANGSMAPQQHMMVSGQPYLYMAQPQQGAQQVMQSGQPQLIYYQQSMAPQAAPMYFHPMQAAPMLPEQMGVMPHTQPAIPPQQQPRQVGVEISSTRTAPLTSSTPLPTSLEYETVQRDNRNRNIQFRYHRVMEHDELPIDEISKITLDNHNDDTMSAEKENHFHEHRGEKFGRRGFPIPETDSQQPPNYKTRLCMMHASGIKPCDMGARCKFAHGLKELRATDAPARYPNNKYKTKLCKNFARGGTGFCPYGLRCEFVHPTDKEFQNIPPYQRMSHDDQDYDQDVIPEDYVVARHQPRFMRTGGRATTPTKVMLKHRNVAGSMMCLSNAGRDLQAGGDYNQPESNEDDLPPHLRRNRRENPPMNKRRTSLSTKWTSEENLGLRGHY
# Cytochrome P450 2C19 = Cytochrome P450 2C19 (Homo sapiens, UniProt P33261); assay: Cytochrome panel assay with activity outcomes. Panel member name: p450-cyp2c19 Compounds with AC50 equal or less than 10 uM are considered active; type: functional; settings: read-out: AC50
# Cytochrome P450 2C19, sequence (P33261 whole entry): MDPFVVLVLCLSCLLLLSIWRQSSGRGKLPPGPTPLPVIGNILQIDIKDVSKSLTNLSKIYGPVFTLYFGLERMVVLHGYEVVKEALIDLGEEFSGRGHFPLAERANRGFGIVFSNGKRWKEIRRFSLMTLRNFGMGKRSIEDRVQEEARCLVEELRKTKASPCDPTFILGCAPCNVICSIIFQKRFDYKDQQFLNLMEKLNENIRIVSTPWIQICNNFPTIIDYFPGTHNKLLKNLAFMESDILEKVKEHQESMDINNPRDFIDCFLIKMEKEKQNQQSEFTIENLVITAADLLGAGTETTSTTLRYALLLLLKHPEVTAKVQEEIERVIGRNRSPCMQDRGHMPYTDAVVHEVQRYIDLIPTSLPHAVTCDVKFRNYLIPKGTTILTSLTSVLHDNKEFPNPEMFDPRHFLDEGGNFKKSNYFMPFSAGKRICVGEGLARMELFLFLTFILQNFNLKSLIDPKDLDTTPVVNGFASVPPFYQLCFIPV
# Cytochrome P450 1A2 = target: T3, Cytochrome P450 1A2 (Homo sapiens, UniProt P05177);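 also: PubChem cytochrome P450 panel assay, CYP1A2 panel member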
# T3 sequence (P05177 whole entry): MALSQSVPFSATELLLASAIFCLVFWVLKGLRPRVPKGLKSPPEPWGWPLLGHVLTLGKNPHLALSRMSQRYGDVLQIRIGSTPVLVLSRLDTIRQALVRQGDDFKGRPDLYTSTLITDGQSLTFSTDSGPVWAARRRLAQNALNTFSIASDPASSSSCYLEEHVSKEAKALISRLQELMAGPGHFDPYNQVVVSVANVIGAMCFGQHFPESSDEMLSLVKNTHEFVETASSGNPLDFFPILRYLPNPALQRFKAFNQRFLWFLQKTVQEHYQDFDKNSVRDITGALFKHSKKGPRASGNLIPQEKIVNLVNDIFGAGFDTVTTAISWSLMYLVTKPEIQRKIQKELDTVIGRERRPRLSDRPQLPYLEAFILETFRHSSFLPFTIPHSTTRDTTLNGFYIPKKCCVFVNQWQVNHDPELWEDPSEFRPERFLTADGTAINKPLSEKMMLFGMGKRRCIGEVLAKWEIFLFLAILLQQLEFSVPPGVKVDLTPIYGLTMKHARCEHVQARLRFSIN
# Cytochrome P450 3A4 = Cytochrome P450 3A4 (Homo sapiens, UniProt P08684);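 also: CYP3A4 tested as one member of a cytochrome P450 panel screen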
# Cytochrome P450 3A4, sequence (P08684 whole entry): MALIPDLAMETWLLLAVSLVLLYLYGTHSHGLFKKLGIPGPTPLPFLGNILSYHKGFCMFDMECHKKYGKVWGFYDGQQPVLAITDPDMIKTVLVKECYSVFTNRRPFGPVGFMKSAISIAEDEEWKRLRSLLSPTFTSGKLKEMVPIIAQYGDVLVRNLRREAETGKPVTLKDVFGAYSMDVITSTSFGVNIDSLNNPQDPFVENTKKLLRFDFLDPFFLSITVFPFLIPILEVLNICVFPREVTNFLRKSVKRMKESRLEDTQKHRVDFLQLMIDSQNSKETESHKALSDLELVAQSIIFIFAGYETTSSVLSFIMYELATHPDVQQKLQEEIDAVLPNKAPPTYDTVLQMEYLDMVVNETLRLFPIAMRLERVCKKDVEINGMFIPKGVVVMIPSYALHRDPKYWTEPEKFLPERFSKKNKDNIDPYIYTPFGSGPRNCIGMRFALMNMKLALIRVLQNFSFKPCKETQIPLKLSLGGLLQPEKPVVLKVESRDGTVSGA
# [3] = Luminescence Cell-Based Dose Confirmation HTS to Identify Activators of 5'UTR Stem-Loop Driven Alpha-Synuclein mRNA Translation in H4 Neuroglioblastoma Cells. [Related pubchem assays: 1829 (Project Summary), 1814 (Primary HTS)]; type: functional
# [4] = Luminescence Cell-Based Dose Response HTS to Identify Activators of Luciferase Translation or Activity in H4 […] Cells. [Related pubchem assays: 1829 (Project Summary), 1814 (Primary HTS)]; type: functional
# H4 = assay: Luminescence Cell-Based Dose Response HTS to Identify Activators of 5'UTR Stem-Loop Driven Prion Protein mRNA Translation in H4 Neuroglioblastoma Cells. [Related pubchem assays: 1829 (Project Summary), 1814 (Primary HTS)]; type: functional; settings: Homo sapiens
# [5] = target: T4, Polyadenylate-binding protein 1 (Homo sapiens, UniProt P11940); assay: MLLE binding blockers, Cy5 peptide tracer – biochemical, fluorescence polarization, Cy5-PAM2 peptide, secondary, miRNA deadenylation inhibitor project, dose response (AID 602260); type: functional; settings: read-out: IC50_Mean
# T4 sequence (P11940 whole entry, the tested form may be a part): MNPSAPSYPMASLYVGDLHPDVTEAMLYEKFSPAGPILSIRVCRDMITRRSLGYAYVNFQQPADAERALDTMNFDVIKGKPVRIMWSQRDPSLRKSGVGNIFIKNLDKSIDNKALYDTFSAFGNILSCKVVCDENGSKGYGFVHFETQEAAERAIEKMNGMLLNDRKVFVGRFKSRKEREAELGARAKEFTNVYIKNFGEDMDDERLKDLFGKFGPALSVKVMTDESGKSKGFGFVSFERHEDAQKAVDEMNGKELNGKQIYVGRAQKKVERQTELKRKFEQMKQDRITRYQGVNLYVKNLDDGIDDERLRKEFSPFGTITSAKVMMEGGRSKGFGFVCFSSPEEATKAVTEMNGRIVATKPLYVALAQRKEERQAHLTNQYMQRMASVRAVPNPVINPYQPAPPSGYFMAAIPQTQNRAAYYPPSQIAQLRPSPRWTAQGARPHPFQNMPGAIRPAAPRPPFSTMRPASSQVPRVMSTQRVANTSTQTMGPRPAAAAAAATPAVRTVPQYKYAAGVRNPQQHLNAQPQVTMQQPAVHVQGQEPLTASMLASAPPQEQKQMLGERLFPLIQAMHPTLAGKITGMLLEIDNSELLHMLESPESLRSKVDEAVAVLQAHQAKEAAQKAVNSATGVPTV
# [6] = target: T4, Polyadenylate-binding protein 1; assay: MLLE domain peptide-binding blockers, IC50 – biochemical, fluorescence polarization, FITC-PAM2 peptide, dose response (AID 602259); type: functional; settings: read-out: IC50_Mean
# [7] = luciferase reporter signal suppression in cells – H4 neuroglioma cells, luminescence, dose response (AID 1990); type: functional, cell-based
# [8] = alpha-synuclein stem-loop luciferase translation blockers – H4 neuroglioma cells, luminescence, confirmation (AID 1988); type: functional, cell-based
# [9] = Luminescence Cell-Based Dose Response HTS to Identify Inhibitors of 5'UTR Stem-Loop Driven Prion Protein mRNA Translation in H4 Neuroglioblastoma Cells. [Related pubchem assays: 1827 (Project Summary), 1813 (Primary HTS)]; type: functional
# [10] = viability of PTEN-deleted HCT116 cells – cell-based, HCT116 PTEN knockout, dose response (AID 1047); type: functional;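 also: HCT116 colon tumor cells with PTEN knocked out; cells exposed to compound for 60 hours before readout; potency for loss of cell viability measured by luminescence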
# [11] = viability of HCT116 lacking mutant beta-catenin – cell-based, human colon tumor, dose response (AID 1045); type: functional;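 also: HCT116 colon tumor cells with beta catenin knocked out; cells exposed to compound for 60 hours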
# Cytochrome P450 2D6 = Cytochrome P450 2D6 (Homo sapiens, UniProt P10635);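 also: CYP2D6 member of a cytochrome P450 panel assay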
# Cytochrome P450 2D6, sequence (P10635 whole entry): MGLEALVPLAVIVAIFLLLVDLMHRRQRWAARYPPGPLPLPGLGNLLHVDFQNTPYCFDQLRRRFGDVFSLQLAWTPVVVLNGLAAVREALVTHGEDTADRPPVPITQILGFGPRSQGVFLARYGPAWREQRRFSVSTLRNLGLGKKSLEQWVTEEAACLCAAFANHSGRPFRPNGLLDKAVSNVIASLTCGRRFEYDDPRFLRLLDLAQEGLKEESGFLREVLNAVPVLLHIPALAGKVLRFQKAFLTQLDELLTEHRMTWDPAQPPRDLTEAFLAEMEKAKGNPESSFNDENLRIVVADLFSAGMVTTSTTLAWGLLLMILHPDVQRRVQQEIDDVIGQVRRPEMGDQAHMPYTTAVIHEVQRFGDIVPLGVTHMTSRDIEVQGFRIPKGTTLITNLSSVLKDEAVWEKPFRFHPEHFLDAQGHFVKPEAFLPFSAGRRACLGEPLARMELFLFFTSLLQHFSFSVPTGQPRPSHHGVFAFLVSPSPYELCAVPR
# INS1 = assay: INS-1E survival protection against cytokine death – cell-based, luminescence, retest, dose response (AID 449756); type: functional; settings: Rattus norvegicus;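 also: cell death triggered by IL-1 beta plus TNF-alpha plus IFN-gamma mixture; protective hits raise ATP signal compared with cytokine alone wells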
smiles,measurement,setting,value
C/C(NCc1ccc2c(c1)OCO2)=C1/C(=O)NC(=O)N(c2ccccc2)C1=O,EC50,[1],> 300 µM (not active)
same,EC50,[2],> 300 µM (not active)
COc1ccc(/C=C2/N=C(c3cccs3)OC2=O)cc1OC(C)C,EC50,[1],> 300 µM (not active)
same,EC50,[2],41.1 µM (active)
O=C(OCc1ccc(Cl)cc1)c1ccccc1C(=O)c1ccccc1,AC50,Cytochrome P450 2C19,0.0891 µM (inconclusive)
same,AC50,Cytochrome P450 1A2,3.55 µM (inconclusive)
same,AC50,Cytochrome P450 3A4,17.8 µM (inconclusive)
CCNc1ncc2nc(-c3cc(F)cc(F)c3)c(=O)n(CCc3ccccc3)c2n1,AC50,Cytochrome P450 1A2,25.1 µM (inconclusive)
same,AC50,Cytochrome P450 3A4,12.6 µM (inconclusive)
COc1ccc(C(=O)N=C(N)Nc2nc3ccccc3o2)cc1,EC50,[3],> 120 µM (not active)
same,EC50,[4],24.2 µM (active)
same,EC50,H4,29.5 µM (active)
Cc1cccc(-c2nc(=S)c3c(o2)CCCC3)c1,IC50,[5],> 66 µM (inactive)
same,IC50,[6],> 66 µM (inactive)
Cc1cccn2c(=O)c3cc(C(=O)NCCN4CCOCC4)c(=N)n(Cc4cccnc4)c3nc12,EC50,[7],12.6 µM (active)
same,EC50,[1],> 300 µM (not active)
same,EC50,[2],87.2 µM (active)
same,EC50,[8],9.91 µM (active)
CC(C)CCn1c(N2CCN(c3cccc(Cl)c3)CC2)nc2c1c(=O)[nH]c(=O)n2C,EC50,[7],18.9 µM (active)
same,EC50,[9],> 60 µM (not active)
same,EC50,[8],> 120 µM (not active)
same,EC50,[10],26.1 µM (active)
same,EC50,[11],33.5 µM (active)
Cc1ccc2sc(C)[n+](CCC(C)S(=O)(=O)[O-])c2c1 (configuration not stated),IC50,[5],> 66 µM (inactive)
same,IC50,[6],> 66 µM (inactive)
COc1ccccc1-c1nccc(NC2CCNCC2)n1,AC50,Cytochrome P450 2C19,1.58 µM (inconclusive)
same,AC50,Cytochrome P450 1A2,15.8 µM (inconclusive)
c1ccc(CN2CCN(c3nc(-c4ccccn4)nc4ccccc34)CC2)cc1,EC50,[10],10.6 µM (active)
same,EC50,[11],8.05 µM (active)
Brc1ccc2oc3c(N4CCOCC4)ncnc3c2c1,EC50,[3],18.5 µM (active)
same,EC50,[4],4.18 µM (active)
same,EC50,H4,14.7 µM (active)
COc1ccc(NC(S)=Nc2ccc3nccnc3c2)cc1,EC50,[3],> 120 µM (not active)
same,EC50,[4],7.7 µM (active)
same,EC50,H4,8.17 µM (active)
CN1CCN(C(=O)c2ccc(-n3cccc3)cc2)CC1,AC50,Cytochrome P450 2C19,25.1 µM (inconclusive)
same,AC50,Cytochrome P450 2D6,15.8 µM (inconclusive)
same,AC50,Cytochrome P450 1A2,25.1 µM (inconclusive)
CCOC(=O)c1sc(NC(=O)c2c(C)nn(Cc3ccccc3)c2C)cc1C,EC50,[10],30.4 µM (active)
same,EC50,[11],27.7 µM (active)
same,AC50,INS1,37.2 µM (active)
CCSc1sccc1C1C(C#N)=C(N)N(c2cccnc2)C2=C1C(=O)CCC2 (configuration not stated),IC50,[5],> 66 µM (inactive)
same,IC50,[6],> 66 µM (inactive)
Cn1c(=O)c(-c2ccc(Cl)cc2)nc2cnc(Nc3ccccc3)nc21,AC50,Cytochrome P450 1A2,31.6 µM (inconclusive)
COc1ccc(/C=C/C(=O)Nc2ccccc2C(=O)N2CCCC2)cc1,AC50,Cytochrome P450 1A2,28.2 µM (inconclusive)
same,AC50,Cytochrome P450 3A4,1 µM (inconclusive)
Cn1c(=O)c(C(=O)CSc2nnc(Nc3ccccc3)s2)c(N)n(Cc2ccccc2)c1=O,EC50,[10],8.05 µM (active)
same,EC50,[11],9.15 µM (active)
Cc1cnn(-c2cc(Oc3ccccc3)ncn2)c1,EC50,[3],1.11 µM (active)
same,EC50,[4],97.4 µM (active)
same,EC50,H4,11 µM (active)
CCOc1cc(C(=S)N2CCOCC2)ccc1OC,IC50,[5],> 66 µM (inactive)
same,IC50,[6],> 66 µM (inactive)
Cc1n[nH]c(SC(C(=O)c2ccccc2)c2ccccc2)n1 (configuration not stated),AC50,Cytochrome P450 2D6,20 µM (inconclusive)
same,AC50,Cytochrome P450 1A2,39.8 µM (inconclusive)
CCC(C(=O)NC1CCCC1)N(C(=O)Cn1nnc(-c2ccc(C)o2)n1)c1cnc2ccccc2c1 (configuration not stated),EC50,[10],17.2 µM (active)
same,EC50,[11],17.5 µM (active)
Cc1ccn2c(=O)nc(SCC(=O)Nc3cc(C)on3)nc2c1,EC50,[1],> 300 µM (not active)
same,EC50,[2],> 300 µM (not active)
CC1Cc2ccccc2N1C(=O)CSc1n[nH]c2c3cc(F)ccc3nc-2n1 (configuration not stated),EC50,[10],24.5 µM (active)
same,EC50,[11],25 µM (active)
COC(=O)CCC(=O)OC1(C)C(=O)C2=COC(c3ccc(OC)cc3)=CC2=C(Br)C1=O (configuration not stated),EC50,[1],91.5 µM (active)
same,EC50,[2],33.1 µM (active)
COc1ccc(OCC(=O)NC(=S)Nc2ccc(S(=O)(=O)Nc3cc(OC)nc(OC)n3)cc2)cc1,IC50,[5],> 66 µM (inactive)
same,IC50,[6],> 66 µM (inactive)
CS(=O)(=O)NNC(=O)Cn1nnc(-c2ccc(OCc3ccccc3Cl)cc2)n1,EC50,[3],18.2 µM (active)
same,EC50,[4],25 µM (active)
same,EC50,H4,> 120 µM (not active)
NS(=O)(=O)c1ccc(NC(=O)COC(=O)c2cn(-c3ccccc3)nc2-c2ccc(F)cc2)cc1,EC50,[1],> 300 µM (not active)
same,EC50,[2],> 300 µM (not active)
COc1ccc(C2C(C#N)=C(N)OC3=C2C(=O)CCC3)cc1Cn1nc(C)c([N+](=O)[O-])c1C (configuration not stated),EC50,[1],> 300 µM (not active)
same,EC50,[2],> 300 µM (not active)
Oc1ccc(C(=S)N2CCCCCC2)cc1,IC50,[5],> 66 µM (inactive)
same,IC50,[6],> 66 µM (inactive)
Cc1ccc(NC(=O)c2cc(-c3ccccc3)nn2-c2ccccc2)c(Br)c1,EC50,[10],34.6 µM (active)
same,EC50,[11],23.5 µM (active)
COC(=O)c1ccc(-n2cnc3ccccc32)nc1,EC50,[3],14.1 µM (active)
same,EC50,[4],16.1 µM (active)
same,EC50,H4,> 120 µM (not active)
CC(=O)c1c(N2CCOCC2)nc(=S)n(-c2ccccc2)c1C,IC50,[5],> 66 µM (inactive)
same,IC50,[6],> 66 µM (inactive)
O=C(CSc1ccccc1C(=O)O)NC1CCCCCC1,IC50,[5],> 66 µM (inactive)
same,IC50,[6],> 66 µM (inactive)
CC(=O)NC(Cc1ccc(F)cc1)C(=O)O (configuration not stated),AC50,Cytochrome P450 1A2,0.01 µM (inconclusive)
COc1cc2c(cc1OC)CN(C(=O)CSc1ccccc1C)CC2,IC50,[5],> 66 µM (inactive)
same,IC50,[6],> 66 µM (inactive)
Cc1ccccc1Nc1nc(N)nc(O)c1N=O,IC50,[5],> 66 µM (inactive)
same,IC50,[6],38.2 µM (inactive)
C(=N\Nc1nc(-c2ccccc2)cs1)/c1ccco1,EC50,[3],5.18 µM (active)
same,EC50,[4],7.64 µM (active)
same,EC50,H4,33.2 µM (active)
CCCCc1noc2c1/C(=N\O)CC(c1ccccc1)C2 (configuration not stated),EC50,[3],> 120 µM (not active)
same,EC50,[4],6.02 µM (active)
same,EC50,H4,27.9 µM (active)
COC(=O)c1ccc(CO/N=C2\CCCc3nonc32)cc1,EC50,[3],92.4 µM (active)
same,EC50,[4],17.8 µM (active)
same,EC50,H4,12.9 µM (active)
